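48-hour exposure; five concentrations; linearly interpolated endpoints. The concentration for 50% growth inhibition is given as GI50. TGI: concentration producing complete growth inhibition.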
Assays:
Assay in all cases: growth of human tumour cells (NCI), 48 h
786-0 renal = tested on: 786-0 renal
KM12 colon = tested on: KM12 colon
SF-539 CNS = tested on: SF-539 CNS
HOP-92 NSCLC = tested on: HOP-92 NSCLC
SNB-19 CNS = tested on: SNB-19 CNS
A549 NSCLC = tested on: A549 NSCLC
HCT-15 colon = tested on: HCT-15 colon
COLO 205 colon = tested on: COLO 205 colon
SK-MEL-2 melanoma = tested on: SK-MEL-2 melanoma
RPMI-8226 leukemia = tested on: RPMI-8226 leukemia

Structure (SMILES)	TGI (786-0 renal) [µM]	TGI (KM12 colon) [µM]	TGI (SF-539 CNS) [µM]	TGI (HOP-92 NSCLC) [µM]	TGI (SNB-19 CNS) [µM]	TGI (A549 NSCLC) [µM]	TGI (HCT-15 colon) [µM]	TGI (COLO 205 colon) [µM]	TGI (SK-MEL-2 melanoma) [µM]	GI50 (KM12 colon) [µM]	GI50 (SF-539 CNS) [µM]	GI50 (HOP-92 NSCLC) [µM]	GI50 (SNB-19 CNS) [µM]	GI50 (SK-MEL-2 melanoma) [µM]	GI50 (HCT-15 colon) [µM]	GI50 (COLO 205 colon) [µM]	GI50 (RPMI-8226 leukemia) [µM]	TGI (RPMI-8226 leukemia) [µM]	GI50 (A549 NSCLC) [µM]
COc1ccc(Nc2nc(NNC(=O)Cc3ccccc3)nc(NNC(=O)c3ccncc3)n2)cc1	> 10	> 10	> 10	> 10	> 10	> 10	> 10	> 10	–	–	–	–	–	–	–	–	–	–	–
CC(=O)OCC1(CNc2nc(N)ncc2C#N)CC(CCc2ccccc2)C1 (centres undefined)	> 100	> 100	> 100	49.9	–	> 100	> 100	> 100	> 100	–	–	–	–	–	–	–	–	–	–
COc1ccc(-c2cc(-c3ccc(OC)c(OC)c3)nc(SCCCC(=O)NO)n2)cc1	–	> 100	3.48	5.63	39.1	–	3.59	5.98	5.85	2.23	1.31	1.5	2.54	2.14	0.553	1.75	0.752	6.21	–
COC(CC1(CCNc2ccccc2)C(=O)N(COCC[Si](C)(C)C)c2ccccc21)OC (centres undefined)	25.4	23.8	–	42.2	33.1	34.3	34.2	9.09	29.9	–	–	–	–	–	–	–	–	> 100	–
COc1ccc(C(=O)/C=C/c2ccc(OCCCOc3ccc(/C=C/C(=O)c4ccc(OC)c(OC)c4)cc3)cc2)cc1OC	> 100	> 100	> 100	–	> 100	> 100	> 100	> 100	> 100	–	–	–	–	–	–	–	–	> 100	–
N#C[C@H]1C(=O)C(c2nc3ccccc3[nH]2)S[C@H]1c1ccccc1 (some centres undefined)	54.2	> 100	–	67.3	> 100	> 100	> 100	> 100	–	–	–	–	–	–	–	–	–	89.7	–
COC(C[C@H]1CCCC[C@]1(O)/C(=C\CO[Si](C(C)C)(C(C)C)C(C)C)Sc1ccccc1)OC	> 100	> 100	–	68.8	> 100	> 100	60	47.4	49.9	–	–	–	–	–	–	–	–	38.4	–
c1cc2c3c(c1)[C@@H]1O[C@@H]1c1cccc(c1-3)[C@@H]1O[C@H]21	75	44	–	50.2	> 100	> 100	47.2	44.6	42.5	–	–	–	–	–	–	–	–	–	–
CCC(=O)Nc1ccc(N2C(=O)/C(=C/c3ccc(O)c(OC)c3)N=C2c2ccccc2)cc1	95.6	> 100	> 100	> 100	> 100	> 100	> 100	–	93.5	–	–	–	–	–	–	–	–	> 100	–
C/C(=C\COP(=O)(O)OP(=O)(O)O)CC/C=C(\C)CNc1ccccc1	> 50	> 50	> 50	–	> 50	> 50	> 50	> 50	> 50	–	–	–	–	–	–	–	–	0.0403	–
CCCOC1OC(CS(=O)(=O)O)C(OC(C)=O)C(OC(C)=O)C1OC(C)=O (centres undefined)	–	> 100	–	> 100	> 100	–	> 100	> 100	> 100	–	–	–	–	–	–	–	–	> 100	–
O=C1NC(=S)N/C1=C\c1ccc(Sc2ccccc2C(=O)O)s1	> 100	> 100	–	–	> 100	–	> 100	> 100	> 100	–	–	–	–	–	–	–	–	> 100	–
S=c1oc(CCCCCCCCc2nn(CNc3ccc(Cl)cc3)c(=S)o2)nn1CNc1ccc(Cl)cc1	> 100	> 100	–	> 100	> 100	> 100	> 100	22.2	> 100	–	–	–	–	–	–	–	–	> 100	–
O=C(O)Cn1ncn(NC(=O)Cc2ccccc2)c1=S	> 10	> 10	> 10	> 10	> 10	> 10	> 10	> 10	–	–	–	–	–	–	–	–	–	> 10	–
CCCCN(CCCC)C1=Nc2ccccc2-n2c(nnc2C(=O)OCC)C1	> 100	> 100	> 100	81.5	> 100	> 100	–	36.2	–	–	–	–	–	–	–	–	–	> 100	–
Cc1c(Cl)c(=O)oc2cc(OCC(O)COC(C)C)ccc12 (centres undefined)	> 100	> 100	–	> 100	> 100	> 100	–	47.8	58.2	–	–	–	–	–	–	–	–	> 100	–
Cc1cn([C@@H]2C[C@](C)(CO)N(C)O2)c(=O)[nH]c1=O	> 100	> 100	–	> 100	> 100	> 100	> 100	> 100	> 100	–	–	–	–	–	–	–	–	> 100	–
Cn1cnc(/C=C/C#N)c1	–	> 100	> 100	> 100	> 100	> 100	> 100	> 100	> 100	–	–	–	–	–	–	–	–	–	–
CN(c1ccc(Cl)cc1)S(=O)(=O)c1ccccc1	> 100	> 100	> 100	–	> 100	> 100	> 100	> 100	> 100	–	–	–	–	–	–	–	–	> 100	–
O=C1/C(=C/c2cccs2)N=C(c2ccccc2)N1c1nc2ccccc2s1	> 100	> 100	> 100	> 100	> 100	> 100	> 100	–	> 100	–	–	–	–	–	–	–	–	52.2	–
CCOc1ccccc1N=NC1C(=O)N(C(=O)CC(=O)Nc2ccccc2OC)N=C1C (centres undefined)	> 100	> 100	> 100	56.8	–	> 100	79.8	> 100	> 100	–	–	–	–	–	–	–	–	> 100	–
C=C1C(=O)O[C@H]2[C@H]1CC/C(COC(=O)/C=C/C(=O)OC/C1=C/CC[C@@]3(C)O[C@H]3[C@H]3OC(=O)C(=C)[C@@H]3CC1)=C\CC[C@@]1(C)O[C@@H]21	–	> 100	7.86	1.8	> 100	> 100	–	1.24	–	5.19	2.5	0.549	5.49	–	–	0.351	0.868	4	> 100
